In patent US10160766B1, “Benzopyranyl tetracycle compound and pharmaceutical composition having excellent anti-inflammatory effect comprising the same” (Spark Biopharma, Inc., priority 2017, dated 2018):
≈ marks a conversion by molar mass, not a printed value. Entries after “also recorded” stand apart in the source; their conditions may differ.

Tests used:
[1] = test system: NO release in Raw264.7 cells; experiment: Griess assay, inhibition of nitric oxide release; type: cell-based; conditions: 100 ng/mL LPS and compounds 24 hours, compared with control group
Procedure: Thus, the Griess assay was used to measure nitric oxide secretion for inflammation inhibition in Raw264.7 cells.
Raw 264.7 macrophage cell was cultured in Dulbecco Modified Eagle Medium (DMEM) with 10% (v/v) fetal bovine serum (FBS) and 1% (v/v) antibiotic-anti mycotic solution.
Cell was maintained in a 100 mm cell culture dish under cell culture conditions (5% CO2 incubator at 37° C. with humidified atmosphere).
Griess assay reagent was generated prior to the assay with the following contents listed below: N-(1-naphthyl) ethylenediamine dihydrochloride, 0.1% (m/v); sulfanilamide, 1% (m/v); phosphoric acid (85%); 5% (v/v) in deionized water.
Raw 264.7 cell was seeded in transparent 96-well plate and maintained for 1 day. Media was aspirated, and each well was washed with serum free DMEM for twice. Each well was refilled with serum-free DMEM.
Then 100 ng/mL LPS and compounds were treated afterward and cultured for 24 hours. After the incubation, the supernatant culture media was transferred to new 96-well plate and mixed with 50 μL of Griess assay reagent.
Media-reagent mixture was incubated at room temperature for several minutes. Absorbance was read at 548 nm. Four wells each were used for the control experiment, LPS and DMSO (without any compounds) treated well, and DMSO-only treated well. Blank values were measured.
Blank values were measured by mixing 50 μL of Griess assay reagent with […] and 1% antibiotic-antimycotic containing DMEM.
As for the compounds in which the double bond of the tetrahydropyridazine ring in Compound 1d is moved or eliminated, the inhibition rate of NO release was measured in the same manner as in Test Example 2.
The inhibition rate of NO release for Compounds 2a to 2o prepared in Example 2 was tested in order to confirm the anti-inflammatory effect for the above compounds.

[2] = test system: Raw 264.7 cell; experiment: WST (water-soluble tetrazolium) analysis, relative cell viability; type: cell-based; conditions: 100 ng/mL LPS and compounds 24 hours
Procedure: Relative cell viability of Compound 2a to 2o prepared in Examples 2 was measured by WST (water-soluble tetrazolium) analysis.
Raw 264.7 cell was seeded in transparent 96-well plate and maintained for 1 day.
Media was aspirated, and each well was washed with serum free DMEM for twice. Each well was refilled with serum-free DMEM. Then, 100 ng/mL LPS and compounds were treated afterward and cultured for 24 hours. After the incubation, the supernatant culture media was transferred to new 96-well plate.
Immediately after transferring media, cell-seeded wells were refilled with 100 μL of 10% FBS and 1% antibiotic-antimycotic containing DMEM. Then, 10 μL of Ez-cytox WST assay reagent was used to treat each well, following the manufacturer's protocol.
After incubating for 20 min in a 5% CO2 incubator at 37° C. with humidified atmosphere, absorbance was read at 450 nm.
Blank values were obtained from the well only treated with 10% FBS and 1% antibiotic-antimycotic containing DMEM.

[3] = test system: TNF-α secretion in Raw264.7 cell; experiment: ELISA of secreted TNF-α; type: cell-based; conditions: Mus musculus, LPS 100 ng/mL, compounds 10 μM, read-out: TNF-α Inhibition Rate (%)
Procedure: Thus, in order to additionally confirm the inflammation inhibitory effects of Compounds 2f to 2l, the inhibition rate of TNF-α secretion was quantitatively measured by ELISA.
Cells were treated with each Compound 1d, or 2f to 2l, and LPS for 24 hours, followed by ELISA for TNF-α present in the culture solution.
In order to measure the amount of secreted TNF-α, Raw264.7 cell was seeded in transparent 96-well plate and maintained for 1 day. Media was aspirated after 1 day and replaced to serum-free DMEM with 1% (v/v) antibiotic-antimycotic solution. LPS and compounds were treated in a final concentration of 100 ng/mL and 10 μM.
Standard curve was plotted by the dose-dependent treatment of the control TNF-α protein provided with the ELISA kit. Blank value was measured by adding solutions without TNF-α substrate.
The TNF-α secretion inhibition rate of Compounds 1d, and 2f to 2l was confirmed, when compared with control groups.

[4] = test system: HMGB1; experiment: Immunofluorescence of cellular localization of HMGB1 upon LPS treatment; type: cell-based; conditions: Raw264.7 cell, 20 μM compounds 1 hour prior to 500 ng/mL LPS for 2 hours
Procedure: From the results shown in Table 6, Compounds 2j (68%) and 2l (60%) had better TNF-α release inhibitory effect than that of Compound 1d (43%). Therefore, it was analyzed with the immunofluorescence whether Compounds 2j and 2l may inhibit the cellular localization of HMGB1 upon LPS treatment.
Raw264.7 cell was seeded in “Nunc Lab-Tek II” chambered coverglass and maintained for 1 day.
Then, 20 μM of compounds were treated 1 hour prior to 500 ng/mL LPS treatment for 2 hours.
After aspirating the media and washing with PBS, 200 μl of 4% paraformaldehyde solution was treated and incubated at room temperature for 20 minutes. Then, 4% paraformaldehyde solution was aspirated and the sample was washed with PBS three times.
For the permeabilization to enable antibody binding, 200 μL of methanol was treated and incubated at −20° C. for 20 minutes. Methanol was then removed and the sample was washed with PBS three times.
Sample was blocked with 2% BSA in PBS solution at room temperature for 1 hour. Then, 2% BSA in PBS solution was removed and primary antibody containing 1% BSA in PBS was treated at 4° C. overnight. Antibody concentration was optimized according to the manufacturer's protocol. Primary antibody solution was removed and the sample was washed with PBS three times. Secondary antibody containing 1% BSA in PBS solution was treated at room temperature for 1 hour.
The secondary antibody used was goat anti rabbit TRITC labeled antibody from Abcam.
After 1 hour, antibody solution was aspirated and the sample was washed with PBS three times. For nucleus staining, Hoechst 33342 was diluted in PBS, and each well was treated and incubated at room temperature for 1 hour. Hoechst 33342 was then removed and the chamber was filled with PBS, continued for imaging using DeltaVision microscope.

[5] = test system: IL-6 secreted from Raw 264.7 cells; experiment: Western blot analysis of IL-6 secretion; type: cell-based; conditions: pretreatment with compounds
Procedure: From the results shown in Table 6, Compounds 2j (68%) and 2l (60%) had better TNF-α release inhibitory effect than that of Compound 1d (43%). Therefore, the inhibitory effect of IL-6 release secretion was analyzed with the Western blot analysis in order to additionally confirm the inflammation inhibitory effect of Compounds 2j and 2l.
(§1) Western Blot Analysis Protein sampling was done in 4° C. Cells were harvested in RIPA lysis buffer containing protease inhibitor cocktail and phosphatase inhibitor.
(§2) After centrifugation at 15000 rpm for 20 minutes, supernatant was transferred to new 1.5 mL tube. Protein concentration was normalized with a Micro BCA protein assay kit. The protein samples were analyzed with the Western blot procedure. Protein was transferred into PVDF membrane after SDS-PAGE. Membrane was blocked after transfer step, with 2% BSA in TBST for 1 hour in room temperature.
(§3) Primary antibodies were treated overnight at 4° C. or 1 hour in room temperature, followed by washing with TBST.
(§4) HRP-conjugated secondary antibodies were treated for 1 hour in room temperature. Antibodies were diluted in 1% BSA in TBST solution, with the concentration indicated in antibody manufacturer's protocol. After washing with TBST, the membrane was developed by Amersham ECL prime solution. Chemiluminescent signal was measured by ChemiDoc MP imaging system, and relative quantification were followed using ImageLab 4.0 software. The quantification result was processed with GraphPad Prism 5.0 software.

[6] = test system: MAPK including p38, JNK, and ERK; experiment: Western blot of MAPK phosphorylation; type: cell-based; conditions: Raw264.7 cells
Procedure: as §1, §2, §3, §4

[7] = test system: NF-κB p65; experiment: NF-κB p65 immunofluorescence (migration to the nucleus); type: cell-based; conditions: Raw264.7 cells, 500 ng/mL LPS
Text: It is concluded that Compounds 1d, 2j, and 2l controlled and regulated the inflammatory signaling pathways in activated macrophages.

[8] = Aqueous solubility; type: physicochemical
Text: (§5) The aqueous solubility, liver microsomal stabilities and PK profiles was measure for Compounds 1d, 2j, and 2l in the in vivo CLP-induced mouse models.

[9] = Liver microsomal stability, mouse; type: in vitro ADME; conditions: for microsomal stability Mouse(%): mouse liver microsomal
Text: as §5

[10] = Liver microsomal stability, human; type: in vitro ADME; conditions: for microsomal stability Human(%): human liver microsomal
Text: as §5

[11] = PK profiles in mouse; type: in vivo; conditions: ip injection
Text: as §5

[12] = test system: CLP-induced mice; experiment: Survival rate in CLP-induced mouse model; conditions: CLP mice; for survival rate, in words: 10 mg/kg ip daily for 21 days, compared with vehicle and 1d groups; for survival rate: intraperitoneally, daily dose of 10 mg/kg for 21 days, start 1 hour before induction
Text: Briefly, the CLP mouse model is established by performing a surgical procedure to the cecum, which is the organ where the resident enteric microbiome exists. Ligating the cecum and puncturing the end with a needle causes endotoxemia by inducing polymicrobial contamination in the abdominal cavity toward the circulatory system.

| SMILES | NO Inhibition rate (%) [1] | Relative Cell Viability (%) [2] | inhibition at 10 µM [3] | translocation of HMGB1 from the nucleus to the cytosol [4] | level of IL-6 secreted (western blot) [5] | phosphorylation of MAPK including p38, JNK, and ERK [6] | migration of NF-κB to the nucleus [7] | solubility in aqueous media, in words, compared with Compound 1d [8] | liver microsomal stability in mice, in words, compared with Compound 1d [9] | microsomal stability Mouse(%) [9] | liver microsomal stability in humans, in words, compared with Compound 1d [10] | microsomal stability Human(%) [10] | PK data AUC [11] | PK data Cmax [11] | PK data T1/2 [11] | PK data Tmax [11] | survival rate, in words [12] | survival rate [12] | solubility ([8]; aqueous media) |
| --- | --- | --- | --- | --- | --- | --- | --- | --- | --- | --- | --- | --- | --- | --- | --- | --- | --- | --- | --- |
| COc1cc(OC)cc(-n2c(=O)n3n(c2=O)C2C(=CC3)C(C)(C)Oc3cc(O)ccc32)c1 (stereo not shown) [Compound 2l] | 94% | 121% | 60% | inhibited the translocation of HMGB1 from the nucleus to the cytosol | superior inhibitory effect on IL-6 secretion; also recorded: improved the inhibition of IL-6 release | clearly inhibited the phosphorylation of MAPK including p38, JNK, and ERK | inhibit the migration of NF-κB to the nucleus | improved solubility in aqueous media | improved liver microsomal stability | 20.2 ± 1.78% | improved liver microsomal stability | 41.2 ± 4.33% | 218 ± 51.8 µg·h/mL | 282 ± 87.0 µg/mL | 5.00 ± 0.98 h | 0.14 ± 0.10 h | superior effects on survival rates | 54% |  |
| CC(=O)c1ccc(-n2c(=O)n3n(c2=O)C2C(=CC3)C(C)(C)Oc3cc(O)ccc32)cc1 (stereo not shown) [Compound 2j] | 93% | 111% | 68% | inhibited the translocation of HMGB1 from the nucleus to the cytosol | superior inhibitory effect on IL-6 secretion; also recorded: improved the inhibition of IL-6 release | clearly inhibited the phosphorylation of MAPK including p38, JNK, and ERK | inhibit the migration of NF-κB to the nucleus | improved solubility in aqueous media | improved liver microsomal stability | 2.46 ± 1.83% | improved liver microsomal stability | 30.2 ± 2.81% | 202 ± 28.1 µg·h/mL | 100 ± 3.72 µg/mL | 3.45 ± 1.00 h | 0.25 ± 0.00 h | superior effects on survival rates | 74% | 162 ± 2.12 µg/mL (≈ 387 µM) |
